Laboratory results as given in ChEMBL document CHEMBL1150459, “The -iodoethoxyl group: a stable unit for radioiodination” (Bioorg Med Chem Lett, 1994).

What was measured:
[1] = tested on: Mus musculus; experiment: Biodistribution of [123I]- labeled compound in mice heart was determined after 2 min of administration; expressed in percent of injected dose per gram of organ; assay type: ADME, organism-based; details: in vivo
[2] = tested on: Mus musculus; experiment: Biodistribution of [123I]- labeled compound in mice liver was determined after 15 sec of administration; expressed in percent of injected dose per gram of organ; assay type: ADME, organism-based; details: in vivo, 15 s
[3] = tested on: Mus musculus; experiment: Biodistribution of [123I]- labeled compound in mice heart was determined after 10 min of administration; expressed in percent of injected dose per gram of organ; assay type: ADME, organism-based; details: in vivo
[4] = tested on: Mus musculus; experiment: Biodistribution of [123I]- labeled compound in mice lungs was determined after 30 sec of administration; expressed in percent of injected dose per gram of organ; assay type: ADME, organism-based, Lung; details: in vivo, 0.5 min
[5] = tested on: Mus musculus; experiment: Biodistribution of [123I]- labeled compound in mice kidneys was determined after 30 sec of administration; expressed in percent of injected dose per gram of organ; assay type: ADME, organism-based, Kidney; details: in vivo, 0.5 min
[6] = tested on: Mus musculus; experiment: Biodistribution of [123I]- labeled compound in mice heart was determined after 1 min of administration; expressed in percent of injected dose per gram of organ; assay type: ADME, organism-based; details: in vivo
[7] = tested on: Mus musculus; experiment: Biodistribution of [123I]- labeled compound in mice brain was determined after 15 sec of administration; expressed in percent of injected dose per gram of organ; assay type: ADME, organism-based; details: in vivo, 15 s
[8] = tested on: Mus musculus; experiment: Biodistribution of [123I]- labeled compound in mice kidneys was determined after 5 min of administration; expressed in percent of injected dose per gram of organ; assay type: ADME, organism-based, Kidney; details: in vivo
[9] = tested on: Mus musculus; experiment: Biodistribution of [123I]- labeled compound in mice brain was determined after 10 min of administration; expressed in percent of injected dose per gram of organ; assay type: ADME, organism-based; details: in vivo
[10] = tested on: Mus musculus; experiment: Biodistribution of [123I]- labeled compound in mice brain was determined after 2 min of administration; expressed in percent of injected dose per gram of organ; assay type: ADME, organism-based; details: in vivo
[11] = tested on: Mus musculus; experiment: Biodistribution of [123I]- labeled compound in mice lungs was determined after 10 min of administration; expressed in percent of injected dose per gram of organ; assay type: ADME, organism-based, Lung; details: in vivo
[12] = tested on: Mus musculus; experiment: Biodistribution of [123I]- labeled compound in mice kidneys was determined after 10 min of administration; expressed in percent of injected dose per gram of organ; assay type: ADME, organism-based, Kidney; details: in vivo
[13] = tested on: Mus musculus; experiment: Biodistribution of [123I]- labeled compound in mice brain was determined after 5 min of administration; expressed in percent of injected dose per gram of organ; assay type: ADME, organism-based; details: in vivo
[14] = tested on: Mus musculus; experiment: Biodistribution of [123I]- labeled compound in mice liver was determined after 30 sec of administration; expressed in percent of injected dose per gram of organ; assay type: ADME, organism-based; details: in vivo, 0.5 min
[15] = tested on: Mus musculus; experiment: Biodistribution of [123I]- labeled compound in mice liver was determined after 1 min of administration; expressed in percent of injected dose per gram of organ; assay type: ADME, organism-based; details: in vivo
[16] = tested on: Mus musculus; experiment: Biodistribution of [123I]- labeled compound in mice lungs was determined after 15 sec of administration; expressed in percent of injected dose per gram of organ; assay type: ADME, organism-based, Lung; details: in vivo, 15 s
[17] = tested on: Mus musculus; experiment: Biodistribution of [123I]- labeled compound in mice kidneys was determined after 15 sec of administration; expressed in percent of injected dose per gram of organ; assay type: ADME, organism-based, Kidney; details: in vivo, 15 s
[18] = tested on: Mus musculus; experiment: Biodistribution of [123I]- labeled compound in mice lungs was determined after 1 min of administration; expressed in percent of injected dose per gram of organ; assay type: ADME, organism-based, Lung; details: in vivo
[19] = tested on: Mus musculus; experiment: Biodistribution of [123I]- labeled compound in mice lungs was determined after 5 min of administration; expressed in percent of injected dose per gram of organ; assay type: ADME, organism-based, Lung; details: in vivo
[20] = tested on: Mus musculus; experiment: Biodistribution of [123I]- labeled compound in mice liver was determined after 10 min of administration; expressed in percent of injected dose per gram of organ; assay type: ADME, organism-based; details: in vivo
[21] = tested on: Mus musculus; experiment: Biodistribution of [123I]- labeled compound in mice kidneys was determined after 2 min of administration; expressed in percent of injected dose per gram of organ; assay type: ADME, organism-based, Kidney; details: in vivo
[22] = tested on: Mus musculus; experiment: Biodistribution of [123I]- labeled compound in mice heart was determined after 15 sec of administration; expressed in percent of injected dose per gram of organ; assay type: ADME, organism-based; details: in vivo, 15 s
[23] = tested on: Mus musculus; experiment: Biodistribution of [123I]- labeled compound in mice brain was determined after 30 sec of administration; expressed in percent of injected dose per gram of organ; assay type: ADME, organism-based; details: in vivo, 0.5 min
[24] = tested on: Mus musculus; experiment: Biodistribution of [123I]- labeled compound in mice liver was determined after 5 min of administration; expressed in percent of injected dose per gram of organ; assay type: ADME, organism-based; details: in vivo
[25] = tested on: Mus musculus; experiment: Biodistribution of [123I]- labeled compound in mice heart was determined after 5 min of administration; expressed in percent of injected dose per gram of organ; assay type: ADME, organism-based; details: in vivo
[26] = tested on: Mus musculus; experiment: Biodistribution of [123I]- labeled compound in mice brain was determined after 1 min of administration; expressed in percent of injected dose per gram of organ; assay type: ADME, organism-based; details: in vivo
[27] = tested on: Mus musculus; experiment: Biodistribution of [123I]- labeled compound in mice liver was determined after 2 min of administration; expressed in percent of injected dose per gram of organ; assay type: ADME, organism-based; details: in vivo
[28] = tested on: Mus musculus; experiment: Biodistribution of [123I]- labeled compound in mice heart was determined after 30 sec of administration; expressed in percent of injected dose per gram of organ; assay type: ADME, organism-based; details: in vivo, 0.5 min
[29] = tested on: Mus musculus; experiment: Biodistribution of [123I]- labeled compound in mice kidneys was determined after 1 min of administration; expressed in percent of injected dose per gram of organ; assay type: ADME, organism-based, Kidney; details: in vivo
[30] = tested on: Mus musculus; experiment: Biodistribution of [123I]- labeled compound in mice lungs was determined after 2 min of administration; expressed in percent of injected dose per gram of organ; assay type: ADME, organism-based, Lung; details: in vivo

O=C(O)CCOCCI
Biodistribution [1]: 5.3%
Biodistribution [2]: 2.3%
Biodistribution [3]: 3.2%
Biodistribution [4]: 12.6%
Biodistribution [5]: 8.8%
Biodistribution [6]: 6.2%
Biodistribution [7]: 5.5%
Biodistribution [8]: 13.2%
Biodistribution [9]: 1.6%
Biodistribution [10]: 4.1%
Biodistribution [11]: 6.5%
Biodistribution [12]: 12.7%
Biodistribution [13]: 2.4%
Biodistribution [14]: 5.5%
Biodistribution [15]: 7.8%
Biodistribution [16]: 18.4%
Biodistribution [17]: 8.6%
Biodistribution [18]: 12%
Biodistribution [19]: 8.8%
Biodistribution [20]: 7.1%
Biodistribution [21]: 11.3%
Biodistribution [22]: 17.8%
Biodistribution [23]: 5.1%
Biodistribution [24]: 9.9%
Biodistribution [25]: 4.2%
Biodistribution [26]: 4.7%
Biodistribution [27]: 8.5%
Biodistribution [28]: 7.9%
Biodistribution [29]: 9%
Biodistribution [30]: 10.9%
